Results: patent publication EP0535528A1, “Antibacterial 5-Nitro-1-methyl-imidazolyl-3-terbutyl-2-hydroxy-aryl-carbinols” (EURORESEARCH S.r.L., priority 1991, dated 1993)
Values after ≈ are worked out from the molar mass of the structure shown.

Key:
Helicobapter pylori [1] = assay: Minimal inhibiting concentration (agar dilution); format: cell-based
Method: Substances under examination: EU11100, EU11102, EU11103, EU11104. Comparison substance: Metronidazole Solubilization of the substances: All the substances to be studied are dissolved at room temperature in DMSO. […] 10 strains of Helicobapter pylori are used of recent clinical isolation […] The sowing of the bacteria, prepared as described in the preceding test is carried out by means a "multi-point inoculator". After 48 hours incubation under the condition described in the preceding test, the plates are examined and the Minimal Inhibiting Concentration is evaluated, namely that dose corresponding to growth absence.

Helicobapter pylori [2] = assay: Inhibition halos of the bacterial growth (impregnated disks on agar); format: cell-based; settings: for activity against the Helicobapter pylori strains used: 10 strains
Method: Comparison substance: Metronidazole Solubilization of the substances : All the substances to be studied are dissolved at room temperature in DMSO.
Some commercially available antibiogram disks are so impregnated with the above mentioned compounds that each disk has concentration equal to 10, 1, 0.1, 0.01 µg.
10 strains of Helicobapter pylori are used of recent clinical isolation.
Columbia Blood Agar Base is used, containing 5% of defibrinated horse blood, 2 % of calf serum, 2 vials of Vitox per liter of medium and Vancomicine (10 µg/ml) Trimetoprim lactate(5 µg/ml) and Polimixin B (2.5 U/ml).
0.1 ml of a suspension of the different used strains are uniformly distributed onto Petri plates, containing 20 ml of Columbia Blood Agar base, obtained by taking a sample, by means of a platinum loop, of different colonies from a 48 hours culture, grown in anaerobiosis jars with "Gas Pack", without a catalyst and diluted into a physiological solution.
4 disks per plate, previously impregnated with the substances under examination, are then placed onto the agar layer of each plate.
After 48 hours of anaerobiosis incubation, as above described, the inhibition halos of the bacterial growth, produced by the different activity of the substances inside the agar, are evaluated.

- MIC50 (Helicobapter pylori [1]; 10 strains): 0.12 µg/mL (≈ 0.701 µM)
- MIC90 (Helicobapter pylori [1]; 10 strains): 0.25 µg/mL (≈ 1.46 µM)
- MIC range (Helicobapter pylori [1]; 10 strains): 0.015 to 0.25 µg/mL
- MIC (Helicobapter pylori [1]; strain 1): 0.25 µg/mL (≈ 1.46 µM)
- MIC (Helicobapter pylori [1]; strain 2): 0.06 µg/mL (≈ 0.351 µM)
- MIC (Helicobapter pylori [1]; strain 3): 0.25 µg/mL (≈ 1.46 µM)
- MIC (Helicobapter pylori [1]; strain 4): 0.25 µg/mL (≈ 1.46 µM)
- MIC (Helicobapter pylori [1]; strain 5): 0.015 µg/mL (≈ 0.0876 µM)
- MIC (Helicobapter pylori [1]; strain 6): 0.12 µg/mL (≈ 0.701 µM)
- MIC (Helicobapter pylori [1]; strain 7): 0.25 µg/mL (≈ 1.46 µM)
- MIC (Helicobapter pylori [1]; strain 8): 0.25 µg/mL (≈ 1.46 µM)
- MIC (Helicobapter pylori [1]; strain 9): 0.12 µg/mL (≈ 0.701 µM)
- MIC (Helicobapter pylori [1]; strain 10): 0.12 µg/mL (≈ 0.701 µM)
SMILES: Cc1ncc([N+](=O)[O-])n1CCO [Metronidazole, reference compound]
- activity against the Helicobapter pylori strains used (Helicobapter pylori [2]; 0.1 µg/disk): inactive
- activity against the Helicobapter pylori strains used (Helicobapter pylori [2]; 1 µg/disk): inactive
- Inhibition halo (mm), Average (Helicobapter pylori [2]; average of 10 strains, 10 µg/disk): 39.5 mm
- activity against Helicobapter pylori (Helicobapter pylori [2]; general statement, at a low concentration): poorly effective
- Inhibition halo (mm) at the concentration (µg/disk) (Helicobapter pylori [2]; strain 1, 0.01 µg/disk): 0 mm
- Inhibition halo (mm) at the concentration (µg/disk) (Helicobapter pylori [2]; strain 1, 0.1 µg/disk): 0 mm
- Inhibition halo (mm) at the concentration (µg/disk) (Helicobapter pylori [2]; strain 1, 1 µg/disk): 0 mm
- Inhibition halo (mm) at the concentration (µg/disk) (Helicobapter pylori [2]; strain 1, 10 µg/disk): 45 mm
- Inhibition halo (mm) at the concentration (µg/disk) (Helicobapter pylori [2]; strain 2, 0.01 µg/disk): 0 mm
- Inhibition halo (mm) at the concentration (µg/disk) (Helicobapter pylori [2]; strain 2, 0.1 µg/disk): 0 mm
- Inhibition halo (mm) at the concentration (µg/disk) (Helicobapter pylori [2]; strain 2, 1 µg/disk): 0 mm
- Inhibition halo (mm) at the concentration (µg/disk) (Helicobapter pylori [2]; strain 2, 10 µg/disk): 33 mm
- Inhibition halo (mm) at the concentration (µg/disk) (Helicobapter pylori [2]; strain 3, 0.01 µg/disk): 0 mm
- Inhibition halo (mm) at the concentration (µg/disk) (Helicobapter pylori [2]; strain 3, 0.1 µg/disk): 0 mm
- Inhibition halo (mm) at the concentration (µg/disk) (Helicobapter pylori [2]; strain 3, 1 µg/disk): 0 mm
- Inhibition halo (mm) at the concentration (µg/disk) (Helicobapter pylori [2]; strain 3, 10 µg/disk): 45 mm
- Inhibition halo (mm) at the concentration (µg/disk) (Helicobapter pylori [2]; strain 4, 0.01 µg/disk): 0 mm
- Inhibition halo (mm) at the concentration (µg/disk) (Helicobapter pylori [2]; strain 4, 0.1 µg/disk): 0 mm
- Inhibition halo (mm) at the concentration (µg/disk) (Helicobapter pylori [2]; strain 4, 1 µg/disk): 0 mm
- Inhibition halo (mm) at the concentration (µg/disk) (Helicobapter pylori [2]; strain 4, 10 µg/disk): 42 mm
- Inhibition halo (mm) at the concentration (µg/disk) (Helicobapter pylori [2]; strain 5, 0.01 µg/disk): 0 mm
- Inhibition halo (mm) at the concentration (µg/disk) (Helicobapter pylori [2]; strain 5, 0.1 µg/disk): 0 mm
- Inhibition halo (mm) at the concentration (µg/disk) (Helicobapter pylori [2]; strain 5, 1 µg/disk): 0 mm
- Inhibition halo (mm) at the concentration (µg/disk) (Helicobapter pylori [2]; strain 5, 10 µg/disk): 42 mm
- Inhibition halo (mm) at the concentration (µg/disk) (Helicobapter pylori [2]; strain 6, 0.01 µg/disk): 0 mm
- Inhibition halo (mm) at the concentration (µg/disk) (Helicobapter pylori [2]; strain 6, 0.1 µg/disk): 0 mm
- Inhibition halo (mm) at the concentration (µg/disk) (Helicobapter pylori [2]; strain 6, 1 µg/disk): 0 mm
- Inhibition halo (mm) at the concentration (µg/disk) (Helicobapter pylori [2]; strain 6, 10 µg/disk): 41 mm
- Inhibition halo (mm) at the concentration (µg/disk) (Helicobapter pylori [2]; strain 7, 0.01 µg/disk): 0 mm
- Inhibition halo (mm) at the concentration (µg/disk) (Helicobapter pylori [2]; strain 7, 0.1 µg/disk): 0 mm
- Inhibition halo (mm) at the concentration (µg/disk) (Helicobapter pylori [2]; strain 7, 1 µg/disk): 0 mm
- Inhibition halo (mm) at the concentration (µg/disk) (Helicobapter pylori [2]; strain 7, 10 µg/disk): 32 mm
- Inhibition halo (mm) at the concentration (µg/disk) (Helicobapter pylori [2]; strain 8, 0.01 µg/disk): 0 mm
- Inhibition halo (mm) at the concentration (µg/disk) (Helicobapter pylori [2]; strain 8, 0.1 µg/disk): 0 mm
- Inhibition halo (mm) at the concentration (µg/disk) (Helicobapter pylori [2]; strain 8, 1 µg/disk): 0 mm
- Inhibition halo (mm) at the concentration (µg/disk) (Helicobapter pylori [2]; strain 8, 10 µg/disk): 40 mm
- Inhibition halo (mm) at the concentration (µg/disk) (Helicobapter pylori [2]; strain 9, 0.01 µg/disk): 0 mm
- Inhibition halo (mm) at the concentration (µg/disk) (Helicobapter pylori [2]; strain 9, 0.1 µg/disk): 0 mm
- Inhibition halo (mm) at the concentration (µg/disk) (Helicobapter pylori [2]; strain 9, 1 µg/disk): 0 mm
- Inhibition halo (mm) at the concentration (µg/disk) (Helicobapter pylori [2]; strain 9, 10 µg/disk): 38 mm
- Inhibition halo (mm) at the concentration (µg/disk) (Helicobapter pylori [2]; strain 10, 0.01 µg/disk): 0 mm
- Inhibition halo (mm) at the concentration (µg/disk) (Helicobapter pylori [2]; strain 10, 0.1 µg/disk): 0 mm
- Inhibition halo (mm) at the concentration (µg/disk) (Helicobapter pylori [2]; strain 10, 1 µg/disk): 0 mm
- Inhibition halo (mm) at the concentration (µg/disk) (Helicobapter pylori [2]; strain 10, 10 µg/disk): 37 mm
